The source of these data is US20090246209A1, “GNRH ANALOGUES FOR TREATMENT OF URINARY INCONTINENCE” (priority 2000, published 2009).

Series [1] has as its system bitches suffering from urinary incontinence after spaying. Nature of the series: GnRH analogue slow release implant in bitches with urinary incontinence after spaying. It counts as in vivo, dog. Particulars: for Side effects: dash = none. On the procedure: Additionally, for a limited period the dogs were treated with phenylpropanolamine in a dosage of 1.5 mg/kg BW tid orally.
After discontinuation of the shortacting phenylpropanolamine 8 bitches remained continent. Their continence was therefore achieved solely by the treatment with the composition as described in the present invention. Seven out of fifteen dogs seemed to be much happier and in none of the dogs did the general condition deteriorate. […] The respective results are shown in more detail in table 1.

Series [2] relates to perimenopausal person with urge incontinence and hotflushes. Nature of the series: treatment of a perimenopausal person with urge incontinence and hotflushes. The series is classed as in vivo, human. Particulars: 3.75 mg; one person.
For series [3], the system named is cocker spaniel bitches showing excessive growth of the undercoat due to spaying. Nature of the series: coat quality in spayed cocker spaniel bitches with excessive growth of the undercoat. The series is classed as in vivo, dog. Particulars: 5 mg slow release s.c. implant. On the procedure:
Two cocker spaniel bitches belonging to the same owner were showing excessive growth of the undercoat due to spaying. […] Both dogs were first clinically examined and thereafter a GnRH analogue (Deslorelin) in a dosage of 5 mg, in slow release form, was subcutaneously implanted between the shoulder blades.

Series [4] concerns client owned dogs suffering from urinary incontinence. Nature of the series: double-blind, placebo-control study of long-acting GnRH analogue in incontinent dogs. The series is classed as in vivo, dog. How it is done: In a second ongoing study, 16 client owned dogs suffering from urinary incontinence were enrolled in a double-blind, placebo-control study. In the initial phase of the study, dogs were randomly assigned to treatment with a long-acting GnRH analogue (leuprolide acetate) or placebo (dog owners and the investigators were blinded to treatment) along with a short course of therapy with phenylpropanolamine. 5 weeks after treatment with drug or placebo, dogs were evaluated and, if not fully continent, treated with a long-acting GnRH analogue (leuprolide acetate) in an open label phase of the study. To date only 1 of 10 dogs treated with placebo became continent vs. […] treated with drug during the blinded portion of the study. Overall, the results generated thus far indicate […] dogs treated with the long-acting GnRH analogue became continent and […] improved after discontinuation of the short acting phenylpropanolamine. Only 1 dog of 15 treated with the GnRH analogue was considered not to have improved following treatment with the drug.

Series [5] concerns menopausal person suffering from stress incontinence. Nature of the series: 24 hour pad test in a menopausal person with stress incontinence. It counts as in vivo, human. The following applies: single dose of 3.75 mg; 2 weeks after treatment; before treatment 10 to 130 ml daily. How it is done: A second menopausal person, suffering from stress incontinence for at least 6 years, was treated with a single dose of 3.75 mg of leuprolide acetate. 24 hour pad tests conducted prior to treatment with the drug indicated they lost between 10 and 130 ml of urine on a daily basis due to their incontinence.

Setting [6] is: 11.25 mg slow release s.c. implant, with PPA.

“And” between values parts separate entries of the source, which are not always exact repeats. Identical values can stand only once. “Also recorded” adds a separate entry of the source.

Consider Buserelin acetate [Buserelinacetate], for which the Side effects entry in series [1] (6.3 mg slow release s.c. implant) is reported as “agile, more”. The “Duration of effect after treatment” value in series [1] (6.3 mg slow release s.c. implant, without PPA) is 44 days and 83 days.
For “Triptorelin acetate [Triptorelinacetate]”, in series [1] (3.75 mg slow release s.c. implant, 36 kg bitch, dose too low), the Effect on incontinence entry is “Not effec-”. The “Duration of effect after treatment” value in series [1] (3.75 mg slow release s.c. implant, dose too low) is reported as 0. Also, in series [2], the “period of improvement of both symptoms” value is listed as “about 4 weeks”; the “urge incontinence and hotflushes, reported change” value is “improved considerably”.
For the compound Deslorelin acetate [Deslorelinacetate], the Side effects entry is listed as “agile, more; also recorded: More playfull” in series [1] (6 mg slow release s.c. implant) and “More self-; also recorded: More tolerant; also recorded: less aggres-” in series [1] (12 mg slow release s.c. implant). The Effect on incontinence is 100% in series [1] (6 mg slow release s.c. implant, with PPA (phenylpropanolamine)); 80% and 100% in series [1] (12 mg slow release s.c. implant, with PPA). Also, the coat quality entry in series [3] (5 weeks after the injection, both dogs) is on record as “obvious amelioration of the coat quality”. The “signs of baby coat” value in series [3] (21 weeks after injection) is “no signes of “baby coat” were apparent anymore”.
Take `CCNC(=O)[C@@H]1CCCN1C(=O)[C@H](CCCNC(=N)N)NC(=O)[C@H](CC(C)C)NC(=O)[C@@H](CC(C)C)NC(=O)[C@H](Cc1ccc(O)cc1)NC(=O)[C@H](CO)NC(=O)[C@H](Cc1c[nH]c2ccccc12)NC(=O)[C@H](Cc1c[nH]cn1)NC(=O)[C@@H]1CCC(=O)N1` [Leuprorelinacetate, Leuprolid acetate]: the “Duration of effect after treatment” value is >64 days in series [1] (setting [6]); 0 days in series [1] (11.25 mg slow release s.c. implant, without PPA); >14 days in series [1] (11.25 mg slow release s.c. implant, without PPA, listed as Leuprorelin acetate). The compound further yielded an Effect on incontinence in series [1] (setting [6]) of 100%. The “dogs that became continent” value is 3 to 8 dogs in series [4] (blinded portion, 5 weeks after treatment, with short course of phenylpropanolamine, placebo 1 of 10) and 6 dogs in series [4] (overall, of 15 dogs treated, after discontinuation of phenylpropanolamine). Moreover, in series [4] (overall, of 15 dogs treated), the “dogs considered not to have improved” value is on record as 1 dog. Moreover, the dogs that improved in series [4] (overall, of the remaining dogs, after discontinuation of phenylpropanolamine) worked out at 9 dogs. Moreover, the “daily urine loss (pad test)” value in series [5] is 1 mL.
